ChEMBL document CHEMBL3525973, “Quantitative prediction of human intestinal glucuronidation effects on intestinal availability of UDP-glucuronosyltransferase substrates using in vitro data” (Drug Metab Dispos, 2012)

Legend:
[1] = Intrinsic clearance in human intestinal microsomes assessed CYP450-mediated glucuronidation clearance
[2] = Intrinsic clearance in human intestinal microsomes assessed UGT-mediated glucuronidation clearance
[3] = Unbound intrinsic clearance in human intestinal microsomes assessed UGT-mediated glucuronidation clearance
[4] = biological target: T1, UDP-glucuronosyltransferase 1A9 (Homo sapiens, UniProt O60656); experiment: Activity of human UGT1A9 expressed in insect cells assessed as reduction in compound level after 30 mins; assay type: ADME; conditions: 0.5 h
T1 sequence (O60656 whole entry): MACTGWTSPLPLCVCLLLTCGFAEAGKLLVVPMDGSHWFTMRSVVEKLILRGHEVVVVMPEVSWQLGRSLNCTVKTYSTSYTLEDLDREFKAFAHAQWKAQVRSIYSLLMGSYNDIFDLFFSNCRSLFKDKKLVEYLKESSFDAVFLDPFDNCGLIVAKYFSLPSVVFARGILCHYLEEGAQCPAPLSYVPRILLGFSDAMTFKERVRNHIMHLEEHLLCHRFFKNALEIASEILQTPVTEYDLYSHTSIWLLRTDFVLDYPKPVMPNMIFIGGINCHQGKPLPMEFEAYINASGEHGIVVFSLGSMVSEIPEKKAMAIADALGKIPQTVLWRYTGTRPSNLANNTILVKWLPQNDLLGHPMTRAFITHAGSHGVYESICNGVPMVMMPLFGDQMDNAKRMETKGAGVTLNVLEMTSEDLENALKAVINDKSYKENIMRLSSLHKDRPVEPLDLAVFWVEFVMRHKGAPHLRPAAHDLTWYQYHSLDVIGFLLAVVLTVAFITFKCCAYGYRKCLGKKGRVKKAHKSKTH

[5] = Apparent permeability by PAMPA method
[6] = Oral bioavailability in human; assay type: ADME, organism-based; conditions: in vivo
[7] = clinical; conditions: human, in vivo, po
[8] = clinical; conditions: human, in vivo
[9] = in vitro; conditions: human, blood and plasma
Description: Ratio of drug level in blood to plasma in human

[10] = Unbound fraction during UGT-mediated glucuronidation in human intestinal microsomes
[11] = biological target: T2, UDP-glucuronosyltransferase 1A1 (Homo sapiens, UniProt P22309); experiment: Activity of human UGT1A1 expressed in insect cells assessed as reduction in compound level after 30 mins; assay type: ADME; conditions: 0.5 h
T2 sequence (P22309 whole entry): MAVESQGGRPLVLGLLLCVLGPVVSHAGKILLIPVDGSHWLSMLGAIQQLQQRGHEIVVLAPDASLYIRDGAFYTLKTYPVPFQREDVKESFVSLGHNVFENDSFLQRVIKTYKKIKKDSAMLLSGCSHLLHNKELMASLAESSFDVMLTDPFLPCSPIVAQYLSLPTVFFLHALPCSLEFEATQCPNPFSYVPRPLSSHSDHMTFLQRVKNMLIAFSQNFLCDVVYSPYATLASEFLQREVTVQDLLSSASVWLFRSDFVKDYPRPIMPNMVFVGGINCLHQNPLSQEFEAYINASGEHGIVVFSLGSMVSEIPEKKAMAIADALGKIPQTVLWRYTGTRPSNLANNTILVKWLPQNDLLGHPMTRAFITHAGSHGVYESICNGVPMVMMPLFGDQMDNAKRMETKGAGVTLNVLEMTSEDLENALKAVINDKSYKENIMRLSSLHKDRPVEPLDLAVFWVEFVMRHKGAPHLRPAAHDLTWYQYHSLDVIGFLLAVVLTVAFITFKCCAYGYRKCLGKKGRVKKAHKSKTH

[12] = biological target: T3, UDP-glucuronosyltransferase 1A8 (Homo sapiens, UniProt Q9HAW9); experiment: Activity of human UGT1A8 expressed in insect cells assessed as reduction in compound level after 30 mins; assay type: ADME; conditions: 0.5 h
T3 sequence (Q9HAW9 whole entry): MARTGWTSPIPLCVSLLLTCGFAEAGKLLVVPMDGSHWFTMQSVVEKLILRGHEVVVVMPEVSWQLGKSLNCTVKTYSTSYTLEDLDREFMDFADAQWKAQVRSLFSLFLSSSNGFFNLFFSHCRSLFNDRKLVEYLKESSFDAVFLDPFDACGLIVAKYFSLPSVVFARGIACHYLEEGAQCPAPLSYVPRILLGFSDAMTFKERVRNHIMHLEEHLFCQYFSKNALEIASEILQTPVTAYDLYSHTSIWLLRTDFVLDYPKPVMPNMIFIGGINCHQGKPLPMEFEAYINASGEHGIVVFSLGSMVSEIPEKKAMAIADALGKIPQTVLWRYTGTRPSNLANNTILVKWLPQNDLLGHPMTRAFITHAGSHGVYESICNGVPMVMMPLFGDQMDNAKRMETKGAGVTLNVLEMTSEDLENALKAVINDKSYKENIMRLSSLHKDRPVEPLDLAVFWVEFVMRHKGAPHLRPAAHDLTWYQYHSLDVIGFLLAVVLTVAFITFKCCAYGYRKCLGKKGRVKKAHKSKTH

[13] = biological target: T4, UDP-glucuronosyltransferase 1A10 (Homo sapiens, UniProt Q9HAW8); experiment: Activity of human UGT1A10 expressed in insect cells assessed as reduction in compound level after 30 mins; assay type: ADME; conditions: 0.5 h
T4 sequence (Q9HAW8 whole entry): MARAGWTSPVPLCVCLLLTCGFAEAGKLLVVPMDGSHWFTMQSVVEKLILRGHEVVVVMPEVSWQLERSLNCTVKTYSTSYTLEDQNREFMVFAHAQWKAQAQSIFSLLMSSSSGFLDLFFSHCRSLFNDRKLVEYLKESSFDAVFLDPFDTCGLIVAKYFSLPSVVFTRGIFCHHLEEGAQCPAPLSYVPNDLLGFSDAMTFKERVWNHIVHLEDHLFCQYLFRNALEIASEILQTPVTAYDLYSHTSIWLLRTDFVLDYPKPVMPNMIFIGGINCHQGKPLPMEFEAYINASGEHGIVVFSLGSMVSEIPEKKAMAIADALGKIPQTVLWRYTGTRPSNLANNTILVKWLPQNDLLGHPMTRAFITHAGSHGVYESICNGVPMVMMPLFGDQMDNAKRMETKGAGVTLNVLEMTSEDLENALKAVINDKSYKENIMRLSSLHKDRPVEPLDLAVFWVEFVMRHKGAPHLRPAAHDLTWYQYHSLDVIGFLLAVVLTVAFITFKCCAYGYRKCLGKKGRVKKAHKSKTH

[14] = clinical; conditions: human, in vivo; remark: listed apart in the source
[15] = Unbound fraction during CYP4500-mediated metabolism in human intestinal microsomes
[16] = Unbound intrinsic clearance in human intestinal microsomes assessed CYP450-mediated glucuronidation clearance
[17] = biological target: T5, UDP-glucuronosyltransferase 2B7 (Homo sapiens, UniProt P16662); experiment: Activity of human UGT2B7 expressed in insect cells assessed as reduction in compound level after 30 mins; assay type: ADME; conditions: 0.5 h
T5 sequence (P16662 whole entry): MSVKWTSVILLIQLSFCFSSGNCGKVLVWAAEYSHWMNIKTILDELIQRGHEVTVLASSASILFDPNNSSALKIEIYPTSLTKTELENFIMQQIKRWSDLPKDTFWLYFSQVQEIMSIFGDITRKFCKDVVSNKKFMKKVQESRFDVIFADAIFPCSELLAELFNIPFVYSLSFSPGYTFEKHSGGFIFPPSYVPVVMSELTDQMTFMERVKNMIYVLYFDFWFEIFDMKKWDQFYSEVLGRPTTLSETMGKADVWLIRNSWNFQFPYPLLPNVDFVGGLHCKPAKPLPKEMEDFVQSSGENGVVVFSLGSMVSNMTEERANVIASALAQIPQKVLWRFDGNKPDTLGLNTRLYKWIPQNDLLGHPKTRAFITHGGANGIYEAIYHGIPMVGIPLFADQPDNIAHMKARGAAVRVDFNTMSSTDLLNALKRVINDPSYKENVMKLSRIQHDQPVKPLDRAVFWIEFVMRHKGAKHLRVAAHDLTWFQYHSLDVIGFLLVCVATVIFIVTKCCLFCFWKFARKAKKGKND

[18] = biological target: T6, UDP-glucuronosyltransferase 1A3 (Homo sapiens, UniProt P35503); experiment: Activity of human UGT1A3 expressed in insect cells assessed as reduction in compound level after 30 mins; assay type: ADME; conditions: 0.5 h
T6 sequence (P35503 whole entry): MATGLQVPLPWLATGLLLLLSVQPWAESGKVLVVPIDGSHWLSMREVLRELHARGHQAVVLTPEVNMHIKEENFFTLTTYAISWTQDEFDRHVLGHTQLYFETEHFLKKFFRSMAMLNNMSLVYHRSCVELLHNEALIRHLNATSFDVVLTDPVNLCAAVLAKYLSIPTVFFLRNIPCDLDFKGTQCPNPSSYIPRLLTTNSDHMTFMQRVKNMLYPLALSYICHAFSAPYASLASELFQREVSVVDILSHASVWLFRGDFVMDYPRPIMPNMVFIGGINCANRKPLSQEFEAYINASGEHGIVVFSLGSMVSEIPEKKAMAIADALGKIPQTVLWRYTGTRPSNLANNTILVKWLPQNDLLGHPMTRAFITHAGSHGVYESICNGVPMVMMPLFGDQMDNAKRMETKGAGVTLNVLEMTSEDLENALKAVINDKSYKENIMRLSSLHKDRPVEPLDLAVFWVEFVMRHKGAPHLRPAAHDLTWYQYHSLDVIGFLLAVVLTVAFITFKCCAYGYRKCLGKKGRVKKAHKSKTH

[19] = Drug absorption in po dosed human; assay type: ADME, organism-based; conditions: in vivo, read-out: Drug absorption

Row | Structure (SMILES) | microsomal CLint ([2]; intestinal microsomes) | CL free [3] | Drug metabolism [4] | Papp [5] | blood plasma ratio [9] | fraction unbound ([10]; intestinal microsomes) | fraction unbound ([10]; microsomes) | other results
1 | Cc1ncc2n1-c1ccc(Cl)cc1C(c1ccccc1F)=NC2 [MIDAZOLAM] |  |  |  |  |  |  |  | microsomal CLint ([1]; microsomes): 153 µL/min/mg
2 | CCc1cccc2c3c([nH]c12)C(CC)(CC(=O)O)OCC3 (configuration not stated) [ETODOLAC] | 6.2 µL/min/mg | 5.7 µL/min/mg | metabolite_detected | 23 ×10⁻⁶ cm/s | 0.55 |  |  | bioavailability [6]: 80%; CL/F [7]: 0.82 mL/min/kg; clearance [8]: 0.66 mL/min/kg
3 | Cc1ccc(C(=O)c2cc(O)c(O)c([N+](=O)[O-])c2)cc1 [TOLCAPONE] | 40 µL/min/mg | 103 µL/min/mg | metabolite_detected | 18 ×10⁻⁶ cm/s | 0.61 | 0.39 |  | 
4 | Cc1c(-c2ccc(O)cc2)n(Cc2ccc(OCCN3CCCCCC3)cc2)c2ccc(O)cc12 [BAZEDOXIFENE] |  |  |  | 20 ×10⁻⁶ cm/s |  |  |  | Drug metabolism [11]: metabolite_detected; Drug metabolism [12]: metabolite_detected; Drug metabolism [13]: metabolite_detected; bioavailability [6]: 6.2%
5 | COc1ccc2c(c1)c(CC(=O)O)c(C)n2C(=O)c1ccc(Cl)cc1 [INDOMETHACIN] | 4.2 µL/min/mg | 5.2 µL/min/mg | metabolite_detected | 22 ×10⁻⁶ cm/s | 0.55 |  | 0.8 | clearance [8]: 1.4 mL/min/kg; CL renal [14]: 0.21 mL/min/kg
6 | CCN(CC)C(=O)/C(C#N)=C/c1cc(O)c(O)c([N+](=O)[O-])c1 [ENTACAPONE] | 27 µL/min/mg | 27 µL/min/mg |  | 4.1 ×10⁻⁶ cm/s | 0.59 | 1 |  | 
7 | O=C(c1ccc(OCCN2CCCCC2)cc1)c1c(-c2ccc(O)cc2)sc2cc(O)ccc12 [RALOXIFENE] |  | 2224 µL/min/mg |  | 3 ×10⁻⁶ cm/s |  | 0.98 |  | CL ([2]; microsomes): 2180 µL/min/mg; fraction unbound [15]: 0.43; microsomal CLint ([1]; intestinal microsomes): 8.9 µL/min/mg; CL free [16]: 20.7 µL/min/mg; Drug metabolism [12]: metabolite_detected; Drug metabolism [13]: metabolite_detected
8 | O=C(O)Cc1ccccc1Nc1c(Cl)cccc1Cl [DICLOFENAC] |  | 62.7 µL/min/mg |  |  |  |  | 0.94 | microsomal CLint ([2]; microsomes): 59 µL/min/mg; CL ([1]; microsomes): metabolite_not_detected; CL free [16]: metabolite_not_detected; Drug metabolism [17]: metabolite_detected
9 | CCCc1nc2c(C)cc(-c3nc4ccccc4n3C)cc2n1Cc1ccc(-c2ccccc2C(=O)O)cc1 | 20 µL/min/mg | 21.7 µL/min/mg |  | > 30 ×10⁻⁶ cm/s | 0.67 |  | 0.92 | 
10 | O=c1c(O)c(-c2ccc(O)c(O)c2)oc2cc(O)cc(O)c12 [QUERCETIN] | 4620 µL/min/mg | 5133 µL/min/mg |  | < 1.5 ×10⁻⁶ cm/s | 1 | 0.9 |  | Drug metabolism [18]: metabolite_detected; Drug metabolism [11]: metabolite_detected; Fa [19]: 65%; CL/F [7]: 8330 mL/min/kg
